Source: patent US10612035B2, “EPSPS mutants” (priority 2006, dated 2020)

What was measured:
[1] = target: wild-type EPSPS from E. coli (Escherichia coli, UniProt P0A6D3); conditions: read-out: apparent Km for PEP; cited from earlier work
[2] = system: EPSPS mutations in E coli (Area) and Arabidopsis NM 130093; conditions: mutations 1-9 of the table
Description: To identify mutant EPSPS genes that will produce a gene product that provides resistance to glyphosate, in vitro screening can be done in a bacterial system to save time and resources. Growth curves of bacterial colonies expressing candidate mutant EPSPS genes can be generated to evaluate the mutant EPSPS genes in providing a glyphosate resistant phenotype. […] In another embodiment of the present invention, the E coli EPSPS gene, also called the AroA gene, can be used to evaluate EPSPS mutants for glyphosate resistance. Growth curve assays and enzymatic assays measuring Ki and Km values for candidate mutants are conducted according to well known assay techniques.

[3] = system: Rice plants regenerated that contain the P173A mutant; conditions: applied at commercial rates; rice with P173A EPSPS mutant
Description: The following genoplast (recombinagenic oligonucleobase) was made to make a P173A change in Oryza sativa (rice) germplasm:
(§1) wherein V is a fluorescent dye (V=Cy3) and H is a reverse nucleotide or reverse base (H=3′DMTdCCPG). The underlined nucleobases represent the heterologous region (codon) where the mutation occurs in the rice genome, ie, A. The genoplast is made according to well known techniques and the genoplast is preferably delivered into a rice plant cell via microparticle bombardment, ie, biolistics.

[4] = system: Canola plants regenerated that contain the P178A mutant; conditions: applied at commercial rates; canola with P178A EPSPS mutant
Description: The following genoplast (recombinagenic oligonucleobase) was made to make a P178A change in Brassica napus (canola) germplasm:
as §1, with “nucelobases” for “nucleobases”, “canola” for “rice”

wild-type EPSPS from E. coli, sequence (P0A6D3 whole entry): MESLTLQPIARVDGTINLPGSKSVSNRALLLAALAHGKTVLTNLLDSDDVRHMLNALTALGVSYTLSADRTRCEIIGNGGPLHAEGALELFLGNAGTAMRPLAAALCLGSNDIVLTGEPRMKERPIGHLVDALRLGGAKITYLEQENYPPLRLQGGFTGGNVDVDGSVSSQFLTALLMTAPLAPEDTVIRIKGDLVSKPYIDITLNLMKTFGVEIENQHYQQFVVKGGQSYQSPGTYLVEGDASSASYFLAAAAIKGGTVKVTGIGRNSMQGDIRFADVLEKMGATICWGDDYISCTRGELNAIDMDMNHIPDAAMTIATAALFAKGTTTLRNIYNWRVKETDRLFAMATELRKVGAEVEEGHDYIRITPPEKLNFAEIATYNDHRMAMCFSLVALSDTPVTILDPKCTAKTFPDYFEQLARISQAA

| SMILES | Km [1] | glyphosate resistant phenotype [2] | resistance of plants to glyphosate [3] | resistance of plants to glyphosate [4] |
| --- | --- | --- | --- | --- |
| C=C(OP(=O)(O)O)C(=O)O [PEP, phosphoenolpyruvic acid] | 10 µM | – | – | – |
| O=C(O)CNCP(=O)(O)O [glyphosate, N-phosphonomethylglycine] | – | resistant | resistant | resistant |
